Results taken from PubChem BioAssay AID256 (DTP/NCI, 2004).
Values joined by “and” are separate entries in the source; they are usually repeats but may differ in a detail not shown here. Equal values may be shown once. Toxic doses and inconclusive results are not listed. Rule for the calls: active = survival T/C of 150% or more; inactive = T/C below 125% in these data.

System: CD2F1 mice, L1210 leukemia ip, survival T/C
Assay: NCI In Vivo Anticancer Drug Screen. Data for tumor model L1210 Leukemia (intraperitoneal) in CD2F1 (CDF1) mice
Conditions: higher = longer survival
In short: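 Vehicle-treated tumor-bearing mice served as controls (C) for compound-treated mice (T). Reported figure is T divided by C.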

[1] = endpoint: mean survival time, dose: 12.5 mg/kg/injection, schedule: Q01DX009 (ip), vehicle: Klucel (hydroxypropylcellulose) (HPC)
[2] = endpoint: mean survival time, dose: 25.0 mg/kg/injection, schedule: Q01DX009 (ip), vehicle: Klucel (hydroxypropylcellulose) (HPC)
[3] = endpoint: mean survival time, dose: 25.0 mg/kg/injection, schedule: Q01DX009 (ip), vehicle: saline with Tween-80
[4] = endpoint: mean survival time, dose: 50.0 mg/kg/injection, schedule: Q01DX009 (ip), vehicle: Klucel (hydroxypropylcellulose) (HPC)
[5] = endpoint: mean survival time, dose: 50.0 mg/kg/injection, schedule: Q01DX009 (ip), vehicle: saline with Tween-80
[6] = endpoint: mean survival time, dose: 100.0 mg/kg/injection, schedule: Q01DX009 (ip), vehicle: Klucel (hydroxypropylcellulose) (HPC)
[7] = endpoint: mean survival time, dose: 100.0 mg/kg/injection, schedule: Q01DX009 (ip), vehicle: saline with Tween-80
[8] = endpoint: mean survival time, dose: 200.0 mg/kg/injection, schedule: Q01DX009 (ip), vehicle: saline with Tween-80
[9] = endpoint: mean survival time, dose: 400.0 mg/kg/injection, schedule: Q01DX009 (ip), vehicle: saline with Tween-80
[10] = endpoint: mean survival time, dose: 100.0 mg/kg/injection, schedule: Q04DX002 (ip), vehicle: saline with Tween-80
[11] = endpoint: mean survival time, dose: 200.0 mg/kg/injection, schedule: Q04DX002 (ip), vehicle: saline with Tween-80
[12] = endpoint: mean survival time, dose: 100.0 mg/kg/injection, schedule: Q01DX001 (ip), vehicle: saline with Tween-80
[13] = endpoint: mean survival time, dose: 200.0 mg/kg/injection, schedule: Q01DX001 (ip), vehicle: saline with Tween-80
[14] = endpoint: mean survival time, dose: 400.0 mg/kg/injection, schedule: Q01DX001 (ip), vehicle: saline with Tween-80
[15] = endpoint: mean survival time, dose: 100.0 mg/kg/injection, schedule: Q04DX003 (ip), vehicle: saline
[16] = endpoint: mean survival time, dose: 200.0 mg/kg/injection, schedule: Q04DX003 (ip), vehicle: saline
[17] = endpoint: mean survival time, dose: 100.0 mg/kg/injection, schedule: Q01DX009 (ip), vehicle: saline
[18] = endpoint: mean survival time, dose: 200.0 mg/kg/injection, schedule: Q01DX009 (ip), vehicle: saline
[19] = endpoint: mean survival time, dose: 400.0 mg/kg/injection, schedule: Q01DX009 (ip), vehicle: saline

Measured: T/C

CCOC(=O)c1ccc(NC(=O)Nc2nccs2)cc1
inactive: endpoint: mean survival time, dose: 6.25 mg/kg/injection, schedule: Q01DX009 (ip), vehicle: Klucel (hydroxypropylcellulose) (HPC) 101 % of control | endpoint: mean survival time, dose: 6.25 mg/kg/injection, schedule: Q01DX009 (oral), vehicle: Klucel (hydroxypropylcellulose) (HPC) 101 % of control | [1] 100 % of control | endpoint: mean survival time, dose: 12.5 mg/kg/injection, schedule: Q01DX009 (ip), vehicle: saline with Tween-80 108 % of control | endpoint: mean survival time, dose: 12.5 mg/kg/injection, schedule: Q01DX009 (oral), vehicle: Klucel (hydroxypropylcellulose) (HPC) 100 % of control | endpoint: mean survival time, dose: 12.5 mg/kg/injection, schedule: Q01DX009 (oral), vehicle: saline with Tween-80 103 % of control | [2] 97 % of control | [3] 110 % of control | endpoint: mean survival time, dose: 25.0 mg/kg/injection, schedule: Q01DX009 (oral), vehicle: Klucel (hydroxypropylcellulose) (HPC) 100 % of control | endpoint: mean survival time, dose: 25.0 mg/kg/injection, schedule: Q01DX009 (oral), vehicle: saline with Tween-80 97 % of control | [4] 97 % of control | [5] 114 % of control and 122 % of control | endpoint: mean survival time, dose: 50.0 mg/kg/injection, schedule: Q01DX009 (oral), vehicle: Klucel (hydroxypropylcellulose) (HPC) 105 % of control | endpoint: mean survival time, dose: 50.0 mg/kg/injection, schedule: Q01DX009 (oral), vehicle: saline with Tween-80 100 % of control | [6] 105 % of control | [7] 121 % of control and 110 % of control | endpoint: mean survival time, dose: 100.0 mg/kg/injection, schedule: Q01DX009 (oral), vehicle: Klucel (hydroxypropylcellulose) (HPC) 95 % of control | endpoint: mean survival time, dose: 100.0 mg/kg/injection, schedule: Q01DX009 (oral), vehicle: saline with Tween-80 101 % of control | endpoint: mean survival time, dose: 200.0 mg/kg/injection, schedule: Q01DX009 (ip), vehicle: Klucel (hydroxypropylcellulose) (HPC) 110 % of control | [8] 106 % of control | endpoint: mean survival time, dose: 200.0 mg/kg/injection, schedule: Q01DX009 (oral), vehicle: Klucel (hydroxypropylcellulose) (HPC) 100 % of control | endpoint: mean survival time, dose: 200.0 mg/kg/injection, schedule: Q01DX009 (oral), vehicle: saline with Tween-80 95 % of control | [9] 121 % of control | endpoint: mean survival time, dose: 400.0 mg/kg/injection, schedule: Q01DX009 (oral), vehicle: saline with Tween-80 97 % of control

CC1C2C=CC(C2)C1C(=O)O (stereo unspecified)
inactive: [5] 93 % of control | [7] 96 % of control and 98 % of control | [8] 100 % of control and 87 % of control

CC(C)CCC(=O)c1ccccc1
inactive: endpoint: mean survival time, dose: 50.0 mg/kg/injection, schedule: Q04DX002 (ip), vehicle: saline with Tween-80 87 % of control | [10] 97 % of control | [11] 91 % of control

CCCCn1ccnc1C
inactive: endpoint: mean survival time, dose: 6.25 mg/kg/injection, schedule: Q01DX009 (ip), vehicle: saline 102 % of control | endpoint: mean survival time, dose: 6.25 mg/kg/injection, schedule: Q04DX003 (ip), vehicle: saline 94 % of control | endpoint: mean survival time, dose: 12.5 mg/kg/injection, schedule: Q01DX009 (ip), vehicle: saline 103 % of control | endpoint: mean survival time, dose: 12.5 mg/kg/injection, schedule: Q04DX003 (ip), vehicle: saline 94 % of control | endpoint: mean survival time, dose: 25.0 mg/kg/injection, schedule: Q01DX009 (ip), vehicle: saline 103 % of control | endpoint: mean survival time, dose: 25.0 mg/kg/injection, schedule: Q04DX003 (ip), vehicle: saline 94 % of control

COc1ccc2[nH]c(=O)oc(=O)c2c1
inactive: [1] 96 % of control | [2] 102 % of control | [4] 108 % of control | [12] 96 % of control | [6] 106 % of control | [7] 104 % of control | [13] 107 % of control | [14] 105 % of control

COc1cc2cccnc2c2[nH]cc(C(=O)O)c(=O)c12
inactive: endpoint: mean survival time, dose: 100.0 mg/kg/injection, schedule: Q01DX001 (ip), vehicle: saline 107 % of control | [7] 97 % of control | endpoint: mean survival time, dose: 200.0 mg/kg/injection, schedule: Q01DX001 (ip), vehicle: saline 100 % of control | endpoint: mean survival time, dose: 400.0 mg/kg/injection, schedule: Q01DX001 (ip), vehicle: saline 97 % of control

O=[N+]([O-])c1ccc(/C=C2\c3ccccc3-c3nc4ccccc4nc32)cc1
inactive: endpoint: mean survival time, dose: 75.0 mg/kg/injection, schedule: Q01DX009 (ip), vehicle: saline 86 % of control | endpoint: mean survival time, dose: 150.0 mg/kg/injection, schedule: Q01DX009 (ip), vehicle: saline 88 % of control | endpoint: mean survival time, dose: 300.0 mg/kg/injection, schedule: Q01DX009 (ip), vehicle: saline 95 % of control

S=P(S)(c1ccccc1)c1ccccc1
inactive: endpoint: mean survival time, dose: 80.5 mg/kg/injection, schedule: Q01DX009 (ip), vehicle: saline with Tween-80 104 % of control | endpoint: mean survival time, dose: 161.0 mg/kg/injection, schedule: Q01DX009 (ip), vehicle: saline with Tween-80 98 % of control | endpoint: mean survival time, dose: 322.0 mg/kg/injection, schedule: Q01DX009 (ip), vehicle: saline with Tween-80 100 % of control

COc1ccc2c(c1)CCN=C2CCN1C(=O)CCC1=O
inactive: [15] 101 % of control | [16] 98 % of control

c1cc2c3c(c1)nc(CCCc1nc4cccc5c4n1CCC5)n3CCC2
inactive: [3] 103 % of control | [5] 96 % of control | [7] 94 % of control

COc1cc2ccc(/C=C/C(=O)c3ccc4c(c3)OCO4)cc2cc1OC
inactive: endpoint: mean survival time, dose: 25.0 mg/kg/injection, schedule: Q01DX009 (ip), vehicle: water 98 % of control | endpoint: mean survival time, dose: 50.0 mg/kg/injection, schedule: Q01DX009 (ip), vehicle: water 91 % of control | endpoint: mean survival time, dose: 100.0 mg/kg/injection, schedule: Q01DX009 (ip), vehicle: water 88 % of control | endpoint: mean survival time, dose: 200.0 mg/kg/injection, schedule: Q01DX009 (ip), vehicle: water 90 % of control | endpoint: mean survival time, dose: 400.0 mg/kg/injection, schedule: Q01DX009 (ip), vehicle: water 88 % of control

Oc1ccc(C(=S)N2CCOCC2)cc1
inactive: [17] 100 % of control | [18] 95 % of control | [19] 94 % of control

CC(C)n1c(=S)[nH]c2ccccc2c1=O
inactive: [17] 97 % of control | [18] 100 % of control | [19] 100 % of control

OCC1OC(n2cnc3c4ccccc4ccc32)C(O)C1O (stereo unspecified)
inactive: endpoint: median survival time, dose: 10.0 mg/kg/injection, schedule: Q01DX005 (ip), vehicle: saline with Tween-80 110 % of control | endpoint: median survival time, dose: 16.25 mg/kg/injection, schedule: Q01DX005 (ip), vehicle: saline with Tween-80 98 % of control | endpoint: median survival time, dose: 20.0 mg/kg/injection, schedule: Q01DX005 (ip), vehicle: saline with Tween-80 103 % of control | endpoint: median survival time, dose: 32.5 mg/kg/injection, schedule: Q01DX005 (ip), vehicle: saline with Tween-80 100 % of control | endpoint: median survival time, dose: 40.0 mg/kg/injection, schedule: Q01DX005 (ip), vehicle: saline with Tween-80 97 % of control | endpoint: median survival time, dose: 65.0 mg/kg/injection, schedule: Q01DX005 (ip), vehicle: saline with Tween-80 107 % of control | endpoint: median survival time, dose: 80.0 mg/kg/injection, schedule: Q01DX005 (ip), vehicle: saline with Tween-80 103 % of control | endpoint: median survival time, dose: 130.0 mg/kg/injection, schedule: Q01DX005 (ip), vehicle: saline with Tween-80 97 % of control

COc1cc(-c2nc(-c3ccc(N=Cc4ccc(N(CCCOS(C)(=O)=O)CCCOS(C)(=O)=O)cc4)cc3)cs2)ccc1OCc1ccccc1
inactive: [12] 91 % of control | [13] 95 % of control | [8] 86 % of control | [14] 89 % of control

CCOC(=O)Nc1cc(N)c(N)c(=O)[nH]1
inactive: endpoint: mean survival time, dose: 100.0 mg/kg/injection, schedule: Q01DX001 (ip), vehicle: carboxymethylcellulose (CMC) 102 % of control | endpoint: mean survival time, dose: 200.0 mg/kg/injection, schedule: Q01DX001 (ip), vehicle: carboxymethylcellulose (CMC) 96 % of control | endpoint: mean survival time, dose: 400.0 mg/kg/injection, schedule: Q01DX001 (ip), vehicle: carboxymethylcellulose (CMC) 102 % of control

Cc1ccc(C(C)C)c(OCC2=NCCN2C)c1
inactive: [15] 106 % of control | [16] 106 % of control

CCCC(Br)C(=O)OCC (stereo unspecified)
inactive: [5] 96 % of control | [7] 93 % of control | [8] 93 % of control

CCCCCC(C)C(C)=O (stereo unspecified)
inactive: [7] 101 % of control | [8] 106 % of control | [9] 92 % of control

CCCCOC(=O)COc1ccc(F)cc1F
inactive: [10] 95 % of control | [11] 100 % of control | endpoint: mean survival time, dose: 400.0 mg/kg/injection, schedule: Q04DX002 (ip), vehicle: saline with Tween-80 92 % of control
